Reference: the supplement of paper PMC4862054

How the values were obtained:
Assay in all cases: normalised viability (% of control), CellTiter-Blue; higher = more viable cells (about 100 = DMSO control)
MFM-223 [1] = conditions: incubation time: 72 h
Procedure, shortened: (§1)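 Vehicle (100) and a positive kill control (0) anchored the normalisation of each plate, and Z'-factor was used for quality control. Breast cancer cell lines in 20 µl suspension were incubated 72 h over compound in 5 µl medium in 384-well plates, followed by CellTiter-Blue at 560/590 nm. The value is normalised viability at a single listed concentration of the series.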

HCC1937 [2] = conditions: incubation time: 72 h
Procedure, shortened: as §1

MDA-MB-231 [3] = conditions: incubation time: 72 h
Procedure, shortened: as §1

MDA-MB-468 [4] = conditions: incubation time: 72 h
Procedure, shortened: as §1

MDA-MB-436 [5] = conditions: incubation time: 72 h
Procedure, shortened: as §1

CAL-120 [6] = conditions: incubation time: 72 h
Procedure, shortened: as §1

MDA-MB-453 [7] = conditions: incubation time: 72 h
Procedure, shortened: as §1

SK-BR-3 [8] = conditions: incubation time: 72 h
Procedure, shortened: as §1

BT-474 [9] = conditions: incubation time: 72 h
Procedure, shortened: as §1

HDQ-P1 [10] = conditions: incubation time: 72 h
Procedure, shortened: as §1

CAL-148 [11] = conditions: incubation time: 72 h
Procedure, shortened: as §1

Hs578T [12] = conditions: incubation time: 72 h
Procedure, shortened: as §1

HCC1143 [13] = conditions: incubation time: 72 h
Procedure, shortened: as §1

BT-549 [14] = conditions: incubation time: 72 h
Procedure, shortened: as §1

HCC1599 [15] = conditions: incubation time: 72 h
Procedure, shortened: as §1

CAL-85-1 [16] = conditions: incubation time: 72 h
Procedure, shortened: as §1

DU-4475 [17] = conditions: incubation time: 72 h
Procedure, shortened: as §1

CAL-51 [18] = conditions: incubation time: 72 h
Procedure, shortened: as §1

MFM-223 [19] = conditions: 100 nM; incubation time: 72 h
Method: (§2)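 DSRT, CellTiter-Blue viability, 72 h incubation. Signal is normalised to DMSO and benzethonium chloride controls. Value is the normalised response at dose 3.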

HCC1937 [20] = conditions: 100 nM; incubation time: 72 h
Method: as §2

MDA-MB-231 [21] = conditions: 100 nM; incubation time: 72 h
Method: as §2

MDA-MB-468 [22] = conditions: 100 nM; incubation time: 72 h
Method: as §2

MDA-MB-436 [23] = conditions: 100 nM; incubation time: 72 h
Method: as §2

CAL-120 [24] = conditions: 100 nM; incubation time: 72 h
Method: as §2

MDA-MB-453 [25] = conditions: 10 nM; incubation time: 72 h
Method: as §2

SK-BR-3 [26] = conditions: 100 nM; incubation time: 72 h
Method: as §2

BT-474 [27] = conditions: 100 nM; incubation time: 72 h
Method: as §2

HDQ-P1 [28] = conditions: 10 nM; incubation time: 72 h
Method: as §2

CAL-148 [29] = conditions: 10 nM; incubation time: 72 h
Method: as §2

Hs578T [30] = conditions: 100 nM; incubation time: 72 h
Method: as §2

HCC1143 [31] = conditions: 100 nM; incubation time: 72 h
Method: as §2

BT-549 [32] = conditions: 100 nM; incubation time: 72 h
Method: as §2

HCC1599 [33] = conditions: 100 nM; incubation time: 72 h
Method: as §2

CAL-85-1 [34] = conditions: 10 nM; incubation time: 72 h
Method: as §2

DU-4475 [35] = conditions: 10 nM; incubation time: 72 h
Method: as §2

CAL-51 [36] = conditions: 10 nM; incubation time: 72 h
Method: as §2

Q: How did the normalised viability (MFM-223 [1]; 10 nM) turn out when `COC(=O)C[C@](O)(CCCC(C)(C)O)C(=O)O[C@@H]1C(OC)=C[C@]23CCCN2CCc2cc4c(cc2[C@H]13)OCO4` [Omacetaxine mepesuccinate] was run?
A: The normalised viability was 88.3%.

Q: And the normalised viability (MFM-223 [1]; 1000 nM)?
A: Its normalised viability is 8.87%.

Q: And the normalised viability (MFM-223 [1]; 10000 nM)?
A: Its normalised viability is 4.39%.

Q: What about the normalised viability (HCC1937 [2]; 10 nM) of the same molecule?
A: Its normalised viability is 55.9%.

Q: And the normalised viability (HCC1937 [2]; 1000 nM)?
A: The normalised viability was 13.9%.

Q: And the normalised viability (HCC1937 [2]; 10000 nM)?
A: Its normalised viability is 14.3%.

Q: What about the normalised viability (MDA-MB-231 [3]; 10 nM) of the same molecule?
A: Its normalised viability is 87.9%.

Q: What about the normalised viability (MDA-MB-231 [3]; 1000 nM) of the same molecule?
A: Its normalised viability is 6.79%.

Q: What about the normalised viability (MDA-MB-231 [3]; 10000 nM) of the same molecule?
A: Its normalised viability is 3.89%.

Q: What about the normalised viability (MDA-MB-468 [4]; 10 nM) of the same molecule?
A: The normalised viability was 90.2%.

Q: What about the normalised viability (MDA-MB-468 [4]; 1000 nM) of the same molecule?
A: The normalised viability was 4.25%.

Q: What about the normalised viability (MDA-MB-468 [4]; 10000 nM) of the same molecule?
A: Its normalised viability is 3.02%.

Q: What about the normalised viability (MDA-MB-436 [5]; 10 nM) of the same molecule?
A: Its normalised viability is 88.5%.

Q: And the normalised viability (MDA-MB-436 [5]; 1000 nM)?
A: The normalised viability was 19%.

Q: And the normalised viability (MDA-MB-436 [5]; 10000 nM)?
A: The normalised viability was 11.7%.

Q: And the normalised viability (CAL-120 [6]; 10 nM)?
A: Its normalised viability is 69.2%.

Q: And the normalised viability (CAL-120 [6]; 1000 nM)?
A: Its normalised viability is 7.92%.

Q: And the normalised viability (CAL-120 [6]; 10000 nM)?
A: The normalised viability was 5.91%.

Q: And the normalised viability (MDA-MB-453 [7]; 3 nM)?
A: The normalised viability was 109%.

Q: What about the normalised viability (MDA-MB-453 [7]; 30 nM) of the same molecule?
A: The normalised viability was 44.5%.

Q: What about the normalised viability (MDA-MB-453 [7]; 100 nM) of the same molecule?
A: The normalised viability was 21.4%.

Q: And the normalised viability (SK-BR-3 [8]; 10 nM)?
A: The normalised viability was 89.4%.

Q: What about the normalised viability (SK-BR-3 [8]; 1000 nM) of the same molecule?
A: The normalised viability was 6.71%.

Q: What about the normalised viability (SK-BR-3 [8]; 10000 nM) of the same molecule?
A: Its normalised viability is 3.15%.

Q: And the normalised viability (BT-474 [9]; 10 nM)?
A: The normalised viability was 118%.

Q: And the normalised viability (BT-474 [9]; 1000 nM)?
A: Its normalised viability is 23%.

Q: And the normalised viability (BT-474 [9]; 10000 nM)?
A: Its normalised viability is 13.3%.

Q: What about the normalised viability (HDQ-P1 [10]; 3 nM) of the same molecule?
A: Its normalised viability is 92.5%.

Q: What about the normalised viability (HDQ-P1 [10]; 30 nM) of the same molecule?
A: The normalised viability was 24.6%.

Q: And the normalised viability (HDQ-P1 [10]; 100 nM)?
A: Its normalised viability is 14.9%.

Q: And the normalised viability (CAL-148 [11]; 3 nM)?
A: The normalised viability was 96.3%.

Q: And the normalised viability (CAL-148 [11]; 30 nM)?
A: The normalised viability was 26%.

Q: And the normalised viability (CAL-148 [11]; 100 nM)?
A: The normalised viability was 14.8%.

Q: What about the normalised viability (Hs578T [12]; 10 nM) of the same molecule?
A: Its normalised viability is 111%.

Q: And the normalised viability (Hs578T [12]; 1000 nM)?
A: Its normalised viability is 1.46%.

Q: And the normalised viability (Hs578T [12]; 10000 nM)?
A: The normalised viability was 1.1%.

Q: And the normalised viability (HCC1143 [13]; 10 nM)?
A: The normalised viability was 87.2%.

Q: What about the normalised viability (HCC1143 [13]; 1000 nM) of the same molecule?
A: Its normalised viability is 14.2%.

Q: What about the normalised viability (HCC1143 [13]; 10000 nM) of the same molecule?
A: Its normalised viability is 11%.

Q: What about the normalised viability (BT-549 [14]; 10 nM) of the same molecule?
A: The normalised viability was 87.2%.

Q: What about the normalised viability (BT-549 [14]; 1000 nM) of the same molecule?
A: Its normalised viability is 7.63%.

Q: And the normalised viability (BT-549 [14]; 10000 nM)?
A: The normalised viability was 4.5%.

Q: And the normalised viability (HCC1599 [15]; 10 nM)?
A: The normalised viability was 68.9%.

Q: What about the normalised viability (HCC1599 [15]; 1000 nM) of the same molecule?
A: Its normalised viability is 17%.

Q: And the normalised viability (HCC1599 [15]; 10000 nM)?
A: The normalised viability was 12.9%.

Q: And the normalised viability (CAL-85-1 [16]; 3 nM)?
A: Its normalised viability is 86.8%.

Q: And the normalised viability (CAL-85-1 [16]; 30 nM)?
A: The normalised viability was 25.3%.

Q: What about the normalised viability (CAL-85-1 [16]; 100 nM) of the same molecule?
A: Its normalised viability is 9.04%.

Q: What about the normalised viability (DU-4475 [17]; 3 nM) of the same molecule?
A: The normalised viability was 81%.

Q: What about the normalised viability (DU-4475 [17]; 30 nM) of the same molecule?
A: Its normalised viability is 2.2%.

Q: What about the normalised viability (DU-4475 [17]; 100 nM) of the same molecule?
A: Its normalised viability is 4.43%.

Q: What about the normalised viability (CAL-51 [18]; 3 nM) of the same molecule?
A: Its normalised viability is 101%.

Q: And the normalised viability (CAL-51 [18]; 30 nM)?
A: Its normalised viability is 31.6%.

Q: And the normalised viability (CAL-51 [18]; 100 nM)?
A: The normalised viability was 11.8%.

Q: And the normalised viability (MFM-223 [19])?
A: The normalised viability was 31%.

Q: What about the normalised viability (HCC1937 [20]) of the same molecule?
A: The normalised viability was 14.9%.

Q: What about the normalised viability (MDA-MB-231 [21]) of the same molecule?
A: The normalised viability was 22.1%.

Q: And the normalised viability (MDA-MB-468 [22])?
A: The normalised viability was 17.7%.

Q: What about the normalised viability (MDA-MB-436 [23]) of the same molecule?
A: Its normalised viability is 21.4%.

Q: And the normalised viability (CAL-120 [24])?
A: Its normalised viability is 15.1%.

Q: What about the normalised viability (MDA-MB-453 [25]) of the same molecule?
A: The normalised viability was 90.2%.

Q: And the normalised viability (SK-BR-3 [26])?
A: Its normalised viability is 18.3%.

Q: And the normalised viability (BT-474 [27])?
A: The normalised viability was 54.8%.

Q: And the normalised viability (HDQ-P1 [28])?
A: Its normalised viability is 73%.

Q: And the normalised viability (CAL-148 [29])?
A: Its normalised viability is 67.6%.

Q: What about the normalised viability (Hs578T [30]) of the same molecule?
A: Its normalised viability is 6.8%.

Q: And the normalised viability (HCC1143 [31])?
A: The normalised viability was 37.7%.

Q: What about the normalised viability (BT-549 [32]) of the same molecule?
A: Its normalised viability is 19.2%.

Q: What about the normalised viability (HCC1599 [33]) of the same molecule?
A: Its normalised viability is 29.4%.

Q: What about the normalised viability (CAL-85-1 [34]) of the same molecule?
A: Its normalised viability is 79.7%.

Q: What about the normalised viability (DU-4475 [35]) of the same molecule?
A: The normalised viability was 25.1%.

Q: What about the normalised viability (CAL-51 [36]) of the same molecule?
A: The normalised viability was 92.8%.
